# ChEMBL document CHEMBL3045628, “Quantitative structureactivity relationships studies for prediction of antimicrobial activity of synthesized disulfonamide derivatives” (2011)
# Legend:
# Type in all cases: functional
# Staphylococcus aureus = test: Antimicrobial activity against Staphylococcus aureus ATCC 25923 after 24 hr by broth microdilution assay
# Escherichia coli = test: Antimicrobial activity against Escherichia coli ATCC 11230 after 24 hr by broth microdilution assay
# Bacillus cereus = test: Antimicrobial activity against Bacillus cereus RSKK 863 after 24 hr by broth microdilution assay
SMILES,-logMIC (Staphylococcus aureus),-logMIC (Escherichia coli),-logMIC (Bacillus cereus)
Cc1cccc(S(=O)(=O)NCCNS(=O)(=O)c2cccc(C)c2)c1,3.522,3.58,3.48
O=S(=O)(NCCCCCNS(=O)(=O)c1ccccc1)c1ccccc1,3.38,3.496,3.2
O=S(=O)(NCCNS(=O)(=O)c1ccccc1)c1ccccc1,3.38,3.51,3.37
Cc1ccc(S(=O)(=O)NCCCNS(=O)(=O)c2ccc(C)cc2)cc1,3.3,3.52,3.38
Cc1ccc(S(=O)(=O)NCCNS(=O)(=O)c2ccc(C)cc2)cc1,3.4,3.53,3.4
COc1ccccc1S(=O)(=O)NCCCNS(=O)(=O)c1ccccc1OC,3.55,3.711,3.6
O=S(=O)(NCCCNS(=O)(=O)c1ccccc1)c1ccccc1,3.285,3.49,3.36
O=S(=O)(NCCCCNS(=O)(=O)c1ccccc1)c1ccccc1,3.24,3.48,3.358
Cc1ccc(S(=O)(=O)NCCCCNS(=O)(=O)c2ccc(C)cc2)cc1,3.26,3.5,3.35
Cc1ccccc1S(=O)(=O)NCCNS(=O)(=O)c1ccccc1C,3.638,3.7,3.56
Cc1ccccc1S(=O)(=O)NCCCNS(=O)(=O)c1ccccc1C,3.6,3.68,3.542
Cc1ccccc1S(=O)(=O)NCCCCNS(=O)(=O)c1ccccc1C,3.54,3.64,3.505
Cc1cccc(S(=O)(=O)NCCCNS(=O)(=O)c2cccc(C)c2)c1,3.48,3.57,3.44
Cc1cccc(S(=O)(=O)NCCCCNS(=O)(=O)c2cccc(C)c2)c1,3.47,3.55,3.41
COc1ccc(S(=O)(=O)NCCNS(=O)(=O)c2ccc(OC)cc2)cc1,3.49,3.56,3.46
CS(=O)(=O)NCCNS(C)(=O)=O,2.99,2.99,2.876
CS(=O)(=O)NCCCNS(C)(=O)=O,2.925,2.97,2.864

SMILES,-logMIC (Staphylococcus aureus),-logMIC (Escherichia coli),-logMIC (Bacillus cereus)
CS(=O)(=O)NCCCCNS(C)(=O)=O,2.9,2.95,2.84
CS(=O)(=O)NCCCCCNS(C)(=O)=O,2.88,2.94,2.828
CCS(=O)(=O)NCCNS(=O)(=O)CC,2.66,2.72,2.66
CCS(=O)(=O)NCCCNS(=O)(=O)CC,2.642,2.7,2.642
CCS(=O)(=O)NCCCCNS(=O)(=O)CC,2.637,2.69,2.638
CCS(=O)(=O)NCCCCCNS(=O)(=O)CC,2.61,2.67,2.58
COc1ccc(S(=O)(=O)NCCCNS(=O)(=O)c2ccc(OC)cc2)cc1,3.46,3.511,3.42
CCCS(=O)(=O)NCCCCCNS(=O)(=O)CCC,2.96,3.191,2.78
COc1cccc(S(=O)(=O)NCCNS(=O)(=O)c2cccc(OC)c2)c1,3.52,3.6,3.58
COc1cccc(S(=O)(=O)NCCCNS(=O)(=O)c2cccc(OC)c2)c1,3.5,3.59,3.55
COc1ccccc1S(=O)(=O)NCCNS(=O)(=O)c1ccccc1OC,3.58,3.72,3.66
CCCS(=O)(=O)NCCCNS(=O)(=O)CCC,3.009,3.104,3.058
CCCS(=O)(=O)NCCCCNS(=O)(=O)CCC,2.933,3.119,2.95
CCCCS(=O)(=O)NCCNS(=O)(=O)CCCC,2.974,3.12,2.83
CCCCS(=O)(=O)NCCCNS(=O)(=O)CCCC,2.861,3.116,2.917
CCCCS(=O)(=O)NCCCCNS(=O)(=O)CCCC,2.829,2.857,2.85
CCCS(=O)(=O)NCCNS(=O)(=O)CCC,3.003,3.258,3.179
